Assay results from publication PMC9781916, “Antipsychotic- and Anxiolytic-like Properties of a Multimodal Compound JJGW08 in Rodents” (International Journal of Molecular Sciences, 2022).

Experiments:
mice [1] = test: Marble burying test in mice; assay type: in vivo
Protocol: Figure 3 The effect of JJGW08 and aripiprazole on the number of buried marbles by mice. Mice were placed individually in cages with a 5 cm bedding layer, where 20 glass balls were placed. The number of buried marbles after 30 min of the test was counted. JJGW08 was administered intraperitoneally (ip) 30 min before the test. The control group received 0.9% NaCl solution (ip) or 1% Tween (ip) for aripiprazole. Values are expressed as means ± SD in the case of one-way ANOVA (aripiprazole) or median with interquartile range in the case of Kruskal–Wallis test (JJGW08), n = 8–10 mice per group. Statistical analysis: one-way ANOVA (Newman–Keuls post hoc), and Kruskal–Wallis test (Dunn post hoc), * p < 0.05, ** p < 0.01, *** p < 0.001.
The test was conducted according to the method described by Broekkamp et al. with minor modifications. Mice were placed individually in plastic cages, identical to their home cages, that contained a layer of bedding and 20 glass balls (1.6 cm in diameter) arranged in a pattern 4 × 5. After 30 min of the experiment, the mice were removed from the cages, and the number of balls buried to at least 2/3 of their size was counted.

[2] = biological target: T1, human serotonin 5-HT2A receptor (Homo sapiens, UniProt P28223); assay type: cell-based
T1 construct: host or cells: CHO-K1
T1 sequence (P28223 whole entry): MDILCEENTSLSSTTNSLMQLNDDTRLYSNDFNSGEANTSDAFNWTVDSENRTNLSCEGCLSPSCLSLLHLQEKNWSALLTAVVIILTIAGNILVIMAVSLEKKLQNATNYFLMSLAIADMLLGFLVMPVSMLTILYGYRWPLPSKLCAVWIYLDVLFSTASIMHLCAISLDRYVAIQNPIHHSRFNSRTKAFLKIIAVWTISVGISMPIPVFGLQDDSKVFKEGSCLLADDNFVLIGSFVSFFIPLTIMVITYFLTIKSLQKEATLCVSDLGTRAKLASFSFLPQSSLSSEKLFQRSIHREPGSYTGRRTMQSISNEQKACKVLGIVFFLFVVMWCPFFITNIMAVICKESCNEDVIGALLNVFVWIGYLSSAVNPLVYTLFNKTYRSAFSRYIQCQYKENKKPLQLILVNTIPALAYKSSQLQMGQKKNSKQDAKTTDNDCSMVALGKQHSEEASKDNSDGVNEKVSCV
Protocol: Tested and reference compounds were dissolved in dimethyl sulfoxide (DMSO) at a concentration of 10 mM. Serial dilutions were prepared in a 96-well microplate in assay buffer, and 8 to 10 concentrations were tested. […] The assay was executed according to the previously described protocol [45]. After thawing, cells were transferred to assay buffer (DMEM/HAM’s F12 with 0.1% protease-free BSA) and centrifuged. The cell pellet was resuspended in assay buffer, and coelenterazine h was added at final concentrations of 5 µM. The cell suspension was incubated at 16 °C (or 21 °C), protected from light with constant agitation for 16 h (or 4 h), and then diluted with assay buffer to the concentration of 100,000 cells/mL (or 250,000 cells/mL). After 1 h of incubation, 50 µL of the cell’s suspension was dispensed using automatic injectors built into the radiometric and luminescence plate counter MicroBeta2 LumiJET (PerkinElmer, Waltham, NA, USA) into white opaque 96-well microplates preloaded with test compounds. Immediate light emission generated following calcium mobilization was recorded for 30 s. In antagonist mode, after 25–30 min of incubation, the reference agonist was added to the above assay mix, and light emission was re-recorded. […] IC50 and EC50 values were calculated.

rats = test: Prepulse inhibition test after MK-801 in rats; assay type: in vivo; conditions: 3.0–30 mg/kg ip, MK-801 0.6 mg/kg ip
Protocol: Figure 5 The influence of JJGW08 on startle response inhibition (Panel (A)) and changes in startle response (Panel (B)) in prepulse inhibition test after MK-801 administration in rats. The test was conducted in the soundproof apparatus, and the startle response amplitude was recorded. The experimental session (after a 5-min habituation period) had strictly defined parameters (prepuls-and-pulse trials: 84/120–prepuls 84 dB (20 ms), pulse 120 dB (40 ms); 90/120–prepuls 90 dB (20 ms), pulse 120 dB (40 ms), sham stimulus (70 dB, 40 ms)), and the startle intensity for each stimulus used in the session was measured. JJGW08 was administered ip 30 min before the test, while MK-801 (0.6 mg/kg) was administered ip 15 min before the start of the experiment. The control group received 0.9% NaCl solution (ip) and MK-801 (0.6 mg/kg, ip). Values are expressed as mean ± SD, n = 7–8 rats per group. […]
The study was conducted as described in detail by Acewicz and colleagues. […] Startle responses, reflecting the motion of animals in the cylinder following the acoustic stimulus, were detected by a piezoelectric transducer mounted below the frame. […] Sound levels in the chambers were measured and calibrated with a sound meter. […] Startle responses were measured for 100 ms after the onset of the last stimulus within each trial. […]

mice [3] = test: Spontaneous locomotor activity in mice; assay type: in vivo
Protocol: The locomotor activity of mice was measured as previously described using the same apparatus as described in paragraph 4.5. Each mouse was placed individually in a cage for a 30 min habituation period (directly after administration of the studied compound), and then the number of photobeams crossings was recorded (ambulation). Locomotor activity was evaluated every 1 or 5 min for 1–60 min depending on the observation period in behavioral tests (60 min for the hyperlocomotion test, 30 min for the marble burying test, and 1 min for the four-plate test). The cages were disinfected with an odorless disinfection solution after each mouse.

## COc1ccccc1N1CCN(CCCCCOc2ccccc2C(N)=O)CC1.Cl [JJGW08, 2-{5-[4-(2-metoksyfenylo)piperazin-1-ylo]pentoxy}benzamide hydrochloride]
Mice [1]; 1.25 mg/kg ip
  reduction of the number of buried marbles: 65%
Mice [1]; 2.5 mg/kg ip
  reduction of the number of buried marbles: 84%
[2]
  Agonist Mode Emax%: 21%
  Agonist Mode pEC50 ± Range: 5.9 ± 0.1
  Antagonist Mode Emax%: 5%
  Antagonist Mode pIC50 ± Range: 5.7 ± 0.4
  antagonistic properties (in words): very weak antagonistic properties
[2]; read-out: Antagonist Mode Kb
  Kb: 290 nM
rats
  reversal of deficits in sensorimotor gating induced by MK-801 (in words): did not reverse the deficits
rats; prepulse 84 or 90 dB
  startle reaction inhibition (%PPI): −0.2 to 24.4%
Mice [3]; 0.15 mg/kg ip, 1 min session
  Number of Crossings: 38
Mice [3]; 0.15 mg/kg ip, 30 min session
  Number of Crossings: 547
Mice [3]; 0.15 mg/kg ip, 60 min session
  Number of Crossings: 1346
Mice [3]; 0.3 mg/kg ip, 1 min session
  Number of Crossings: 46
Mice [3]; 0.3 mg/kg ip, 30 min session
  Number of Crossings: 1027
Mice [3]; 0.3 mg/kg ip, 60 min session
  Number of Crossings: 1588
Mice [3]; 0.625 mg/kg ip, 1 min session
  Number of Crossings: 27
Mice [3]; 0.625 mg/kg ip, 30 min session
  Number of Crossings: 634
Mice [3]; 0.625 mg/kg ip, 60 min session
  Number of Crossings: 1671
Mice [3]; 1.25 mg/kg ip, 1 min session
  Number of Crossings: 22
Mice [3]; 1.25 mg/kg ip, 30 min session
  Number of Crossings: 1181
Mice [3]; 1.25 mg/kg ip, 60 min session
  Number of Crossings: 1769
Mice [3]; 2.5 mg/kg ip, 1 min session
  Number of Crossings: 19
Mice [3]; 2.5 mg/kg ip, 30 min session
  Number of Crossings: 437
Mice [3]; 2.5 mg/kg ip, 60 min session
  Number of Crossings: 1450
Mice [3]; 0.15–2.5 mg/kg ip, 60-min and 30-min sessions
  effect on locomotor activity (in words): did not affect locomotor activity
